# Patent publication US11590117B2, “Treatment of a hematologic malignancy with 2-(4-chlorophenyl)-n-((2-(2,6-dioxopiperidin-3-yl)-1-oxoisoindolin-5-yl)methyl)-2,2-difluoroacetamide” (priority 2016, dated 2023)
# Like-named read-outs stand apart in the source and are kept apart here.
# Experiments:
# MDS progenitor cells = assay: MDS colony forming assay in Methocult; assay type: cell-based, human; conditions: 24 hours exposure; compared with liquid culture
# Procedure: (§1) Methods. The effect of Compound 1 on high risk MDS samples was measured in an in vitro liquid culture as well as by colony assays in order to better define its effect on stem/progenitor cells. Bone marrow mononuclear cells (BMMCs) from high risk MDS patients were cultured in vitro in CellGro medium (GellGenix) supplemented with hLDL (40 μg/mL), SCF (50 ng/mL), FLT3 […] (50 ng/mL), IL-3 (10 ng/mL), IL-6 (25 ng/mL) and TPO (100 ng/mL), all from Peprotech. During culture, cells were exposed to different concentrations of Compound 1 (37, 111, 333 and 1000 nM) or DMSO control. After 24 hours, cells were washed twice to remove compound and maintained in culture up to one week, performing viable cell counting on days 1, 3 and 7. Just after compound washout, […] per condition were collected for colony forming assays and another […] were stained for intracellular flow cytometry.
# For colony forming assays cells were seeded in Methocult media (Stem Cell Technologies), incubated at 37° C. during 14 days and scored by automatic counting using StemVision (Stem Cell Technologies).
# [1] = tested on: Bone marrow mononuclear cells (BMMCs) from high risk MDS patients; assay: MDS liquid culture, viable cell counting; assay type: cell-based, human; conditions: 24 hours exposure, 37, 111, 333 and 1000 nM, dose dependent, maintained at least a week
# Procedure: as §1
# AML cell lines = assay: IncuCyte Kinetic Caspase-3/7 Apoptosis Assay, panel of twenty AML cell lines; assay type: cell-based; conditions: Homo sapiens
# From the text: Methods. Acute Myeloid Leukemia Cell Line Panel: Human AML cell lines, AML-193, F36-P, GDM-1, HL-60, HNT-34, Kasumi-1, Kasumi-3, KG-1, KG-1a, ML-2, MOLM-13, MUTZ-8, MV-4-11, NOMO-1, OCI-AML2, OCI-AML3, SIG-M5, TF-1, THP-1, and UT-7 were obtained from American Type Culture Collection (ATCC; Manassas, Va.) and Deutsche Sammlung von Mikroorganismen und Zellkulturen (DSMZ) (Germany) cell banks. The AML panel includes cell line(s) from each FAB classification (M0-M7) (Table 7).
# Cell Culture Conditions: Cell lines were maintained in growth media containing 20% fetal bovine serum (FBS) (Hyclone Cat no. SH30910.03, Lot no. AZF188864; Corning REFno. 35-010-CV, Lot no. 35010124) supplemented with or without 10 ng/mL human recombinant granulocyte-macrophage colony stimulating factor (Sigma-Aldrich Cat no. SRP3050) (Table 8). Medium was purchased from ATCC (Cat no. 30-2001, 30-2002, 30-2003, 30-2005) and Gibco (REF no. 12561-056). Human recombinant granulocyte macrophage colony stimulating factor (GM-CSF) was expressed in Escherichia coli. The cell doubling times for each cell line were provided by ATCC and DSMZ. Cells were maintained in humidified incubators at 5% carbon dioxide (CO2). All cell lines were acclimated to Eagle's minimal essential medium (EMEM)+20% FBS with or without GM-CSF over 2 to 4 weeks prior to live cell imaging using IncuCyte Zoom (Essen Biosciences). The use of EMEM was necessary to eliminate background fluorescence caused by riboflavin in most media.
# Incubation of Cell Cultures with Compound 1: Compound 1 was provided for studies by Celgene chemistry group at a stock concentration of 30 mM in 20 μL dimethyl sulfoxide (DMSO) frozen. Costar 96-well cell culture plates (Corning Cat no. 3595) were coated with 100 μL of 10 µg/mL fibronectin (Sigma-Aldrich Cat no. F1141) for 4 hours at 37° C. and immediately used or refrigerated overnight for later use. Cells (3000 to 6000 cells) were plated in growth medi in fibronectin-coated 96-well plates and incubated for a minimum of a few hours to overnight. Cells were incubated with a 12-point concentration response in triplicate with Compound 1 ([…]) including DMSO and Media controls. A 3-fold serial dilution of Compound 1 starting from a concentration of 200 μM in 0.6% DMSO (diluted in Media) was performed. For most sensitive cell lines, a 3-fold serial dilution of Compound 1 starting from a concentration of 20 μM in 0.6% DMSO (diluted in media) was performed. A volume of 5 μL or 10 μL for each dilution was added to 100 μL or 200 μL cells, respectively (0.3% DMSO final) and incubated for live cell imaging.
# Live Cell Imaging on IncuCyte Zoom: Following incubation of cells with Compound 1, diluted Caspase 3/7 reagent (Essen Biosciences Cat no. 4440) is added to each well. The Caspase-3/7 reagent couples the activated caspase-3/7 recognition motif (DEVD) to NucView™488, a DNA intercalating dye. The cleavage of substrate by activated caspase-3/7 results in the release of the DNA dye and green fluorescent staining of nuclear DNA. This allows imaging of cells undergoing caspase-3/7 mediated apoptosis over time. Caspase-3/7 activation was quantified using the IncuCyte™ ZOOM basic analyzer. Red-labeled cell lines were also imaged over time using the IncuCyte™ ZOOM basic analyzer, for determination of both cell doubling time and Compound 1 effect on cell viability. Experiments were performed at least two times in each cell line.
# Next, a 4 parameter log-logistic model was used to determine relative EC50 at each time point by the ‘drm’ function from the R ‘drc’ package (Ritz C, Streibig J C. Bioassay Analysis using R. J. Statist. Software 2005; 12(5):1-22). Goodness of fit was measured by R squared (coefficient of determination or the amount of variation explained by the model fit) of ≥80%, and EC50 parameter was assessed by having a ratio of standard error to the parameter of ≤40%, and the presence of at least one concentration point above and below the reported EC50. […]
smiles,measurement,setting,value
"O=C1CCC(N2Cc3cc(CNC(=O)C(F)(F)c4ccc(Cl)cc4)ccc3C2=O)C(=O)N1 (stereo not drawn) [Compound 1, 2-(4-chlorophenyl)-N-((2-(2,6-dioxopiperidin-3-yl)-1-oxoisoindolin-5-yl)methyl)-2,2-difluoroacetamide]",effect on MDS progenitor cells in colony forming assays,MDS progenitor cells,more acute
same,number of viable cells,[1],significantly reduced
same,EC50,"AML cell lines; 12 h, 8 most sensitive cell lines (5 lines with curve fits), 12 hours, read-out: apoptosis EC50 12hr (range)",53 to 227 nM
same,EC50,"AML cell lines; 24 h, 14 of 20 cell lines with successful curve fits, 24 hours, read-out: apoptosis EC50 24hr (range)",7 to 916 nM
same,EC50,"AML cell lines; 48 h, eight highly sensitive cell lines (HNT-34, Kasumi-3, HL-60, ML-2, MV4-11, KG-1, MUTZ-8, GDM-1), 48 hours, read-out: apoptosis EC50 48hr (range)",4 to 49 nM
same,EC50,"AML cell lines; 48 h, eight highly sensitive cell lines, 48 hours, read-out: apoptosis average EC50 48hr",27 nM
same,EC50,"AML cell lines; 48 h, four least sensitive cell lines (UT-7, F36-P, MOLM-13, OCI-AML3), 48 hours, read-out: apoptosis EC50 48hr (range)",231 to 896 nM
same,EC50,"AML cell lines; 48 h, four least sensitive cell lines (UT-7, F36-P, MOLM-13, OCI-AML3), 48 hours, read-out: apoptosis average EC50 48hr",458 nM
same,EC50,"AML cell lines; 48 h, seven moderately sensitive cell lines (OCI-AML-2, AML-193, SIG-M5, Kasumi-1, TF-1, Nomo-1, KG-1a), 48 hours, read-out: apoptosis EC50 48hr (range)",81 to 145 nM
same,EC50,"AML cell lines; 48 h, seven moderately sensitive cell lines, 48 hours, read-out: apoptosis average EC50 48hr",114 nM
same,EC50,"AML cell lines; 72 h, AML cell panel, 72 hours, read-out: apoptosis EC50 72hr (range)",3 to 971 nM
same,EC50,"AML cell lines; 96 h, AML cell panel, 96 hours, read-out: apoptosis EC50 96hr (range)",1 to 418 nM
